Experimental data published in paper PMC9804387, “Substrate Peptidomimetic Inhibitors of P. falciparum Plasmepsin X with Potent Antimalarial Activity” (Chemmedchem, 2022).
Where a name gives a salt, the structure may show the parent alone.

Tests used:
[1] = tested on: PMIX processing of the ASP protein; test: ASP processing inhibition assay in parasites (western blot, anti-HA); assay type: cell-based, P. falciparum; details: 38 at 10 μM, HA‐tagged ASP parasites
Method: In this experiment, synchronized late trophozoite/early schizont stage parasites, expressing HA‐tagged ASP, were incubated with 38 (10 μM), the positive control WM382 (1) (2.5 nM) (a dual potent inhibitor of PMIX and PMX) and the DMSO vehicle control. Parasites from each treatment condition were then lysed and the processing of the known PMX and PMIX substrates were detected by western blot as a corollary of protease activity.
P. falciparum ASP and SERA5 Processing Inhibition Assay. P. falciparum substrate processing inhibition assays were performed as previously described.[28] Synchronized ring stage cultures were treated with test compounds 38 (10 μM) and WM382 (2.5 nM)[28] or DMSO as a vehicle control. The parasite cultures were grown to the schizont stage before passing over LD magnetic columns (Miltenyi Biotech) to remove uninfected erythrocytes. Parasites were eluted from columns with RPMI 1640 (in‐house) culture medium to which the appropriate inhibitor at the same concentration had been added. Eluted parasites were adjusted to 5×10^6 schizonts/mL and 150 μL added per well of a 96‐well flat‐bottomed culture plate. […] HA‐tagged apical sushi protein (ASP) was detected in the merozoite fraction with anti‐HA mAb and SERA5 was detected in the supernatant fraction with an anti‐SERA5 polyclonal Ab. […]

Pf 3D7 = tested on: Pf 3D7; set-up: method as in PMID 29074775, PMID 32109369, PMID 23260352, PMID 29519896; details: Figure 1, described in literature; cited from earlier work
PMX = details: cited from earlier work

| SMILES | ASP processing by PMIX (western blot) [1] | EC50 (Pf 3D7) [pM] | IC50 (PMX; Figure 1, described in literature) [pM] | selectivity for PMX compared to PMIX (PMX) [fold] |
| --- | --- | --- | --- | --- |
| C[C@@H](NC[C@@H](O)[C@H](Cc1ccccc1)NC(=O)[C@H](CO)NC(=O)OCc1ccccc1)c1ccccc1 [Compd 38, Cbz‐Ser‐Phe‐HEA‐Bn(CH3)⋅TFA] | partial inhibition of PMIX processing |  |  |  |
| C[C@@H](NC[C@@H](O)[C@H](Cc1ccccc1)NC(=O)c1ccc(C(=O)N2CCN(C)CC2)cc1)c1ccccc1 [Compd 2, reference compound] |  | 600 | 1400 | > 500 |
